Reference: patent US20100087406A1, “INDUCTION OF INNATE IMMUNITY BY VITAMIN D3 AND ITS ANALOGS” (CEDARS-SINAI MEDICAL CENTER, priority 2004, published 2010)
“Also recorded” adds a separate entry of the source. Where two headings read alike, the source gives them in different places.

Key:
CRAMP [1] = assay: CRAMP in cultured bone marrow cells of C/EBPε-deficient or wild type mice (QRT-PCR); assay type: cell-based
Procedure: Primers against murine CAMP/CRAMP (forward, SEQ ID NO.: 7 and reverse, SEQ ID NO.: 8) (Table 3) were used at 200 nM per reaction.
The relative fold change between samples was determined using data normalized for 18S expression. Samples were analyzed in triplicate.

HNP3 (α-defensin) = assay: Induction of primary granule gene HNP3 in U937 cells (RT-PCR); settings: U937, 1×10^−7 M, 24 h
CD11b [2] = assay: Differentiation marker CD11b mRNA in U937 cells (Northern blot); settings: for macrophage-like differentiation (induction of CD11b): U937, 1,25[OH]2D3 1×10^−7 M or TPA 5 ng/ml, 1, 3 or 5 days
Source text: Total RNA at each time point was isolated and electrophoresed, then transferred to a charged membrane for Northern analysis.
Total RNA was extracted and analyzed by Northern blot.

CAMP [3] = assay: Induction of CAMP mRNA expression in NB4 cells (Northern blot)
LTF (lactoferrin) = assay: Induction of secondary granule gene LTF in U937 cells (RT-PCR); settings: U937, 1×10^−7 M, 24 h
CAMP [4] = assay: Induction of CAMP mRNA in keratinocyte cell line HaCat (QRT-PCR); assay type: cell-based, human
Source text: The X-axis represents (CAMP(ng)/18S(ng)), +/−SD.

CAMP [5] = assay: Induction of CAMP mRNA expression in U937 cells (QRT-PCR, RT-PCR, Northern blot); assay type: cell-based, human; settings: for induction of CAMP (hCAP18) mRNA expression by Vitamin D3 analogs: U937, 1×10^−7 M, 12 and 24 hours
CAMP [6] = assay: Induction of CAMP mRNA expression in HL60 cells (Northern blot)
hCAP18 = settings: colon epithelial cell lines; cited from earlier work
CD11b [7] = assay: Differentiation marker CD11b mRNA in HL60 cells (Northern blot); assay type: cell-based, human; settings: HL-60; 1,25[OH]2D3 1×10^−7 M or TPA 5 ng/ml; 1, 3 or 5 days
CRAMP [8] = assay: CRAMP expression in bone marrow of treated BNX mice (Northern blot); settings: intraperitoneal, 0.05 μg/mouse every two days for 6 weeks
CAMP [9] = settings: cultured keratinocytes or composite keratinocyte grafts; cited from earlier work
CAMP [10] = settings: primary human keratinocytes; cited from earlier work
[11] = U937, initial screen, 24 h, QRT-PCR and Northern blot

C=C1/C(=C\C=C2/CCC[C@]3(C)[C@@H]([C@H](C)CCCC(C)(C)O)CC[C@@H]23)C[C@@H](O)C[C@@H]1O [1,25(OH)2D3, 1,25-dihydroxyvitamin D3]
induction of CRAMP (CRAMP [1]; C/EBPε-deficient or wild type bone marrow cells cultured in vitro, 24 h): CRAMP induction was not observed
decrease of CRAMP (CRAMP [1]; bone marrow cells, 24 h post-treatment (FIG. 14B)): approximately 2 fold
induction of HNP3 (HNP3 (α-defensin)): No induction of these genes was observed
time of induction of the differentiation marker CD11b (CD11b [2]; U937, 1×10^−7 M, time course 1-24 hours): 12 h
macrophage-like differentiation (induction of CD11b) (CD11b [2]): promoted macrophage-like differentiation
induction of CAMP expression (CAMP [3]; NB4, 1×10^−6 M to 1×10^−9 M, 24 h, Northern blot (FIG. 3)): induction was observed; also recorded: induced expression of CAMP was observed
induction of CAMP expression (CAMP [3]; NB4, 1×10^−6 M to 1×10^−9 M, 24 h, Northern blot (FIG. 3), listed as Vitamin D3): Moderate induction
induction of LTF (LTF (lactoferrin)): No induction of these genes was observed
induction of CAMP mRNA compared with myeloid cells (CAMP [4]): not as robust as that observed in the myeloid cells; also recorded: less striking
induction of CAMP mRNA (CAMP [4]; 1×10^−7 M, 24 hours, QRT-PCR): Induction of CAMP mRNA was observed

CC1=C(/C=C/C(C)=C/C=C/C(C)=C/C(=O)O)C(C)(C)CCC1 [ATRA, all trans retinoic acid]
induction of CAMP expression (CAMP [5]; U937, 5×10^−7 M, 1-5 days): No induction was observed
induction of CAMP expression (CAMP [5]; [11]): only 1,25(OH)2D3 induced CAMP expression significantly
induction of CAMP expression (CAMP [6]; HL60, 5×10^−7 M, 1-5 days): No induction was observed
induction of CAMP expression (CAMP [3]; NB4, 5×10^−7 M, 1-5 days): No induction was observed

C[C@@H]1C[C@@H]([C@H](O)CC2CC(=O)NC(=O)C2)C(=O)[C@@H](C)C1 [CHX, cyclohexamide]
induction of CAMP gene expression by CHX alone (CAMP [5]; U937, data not shown): did not induce CAMP gene expression

C[C@]12CCC(=O)C[C@@H]1CC[C@@H]1[C@@H]2CC[C@]2(C)[C@@H](O)CC[C@@H]12 [DHT, dihydrotestosterone]
induction of CAMP expression (CAMP [5]): only 1,25(OH)2D3 induced CAMP expression significantly

C=C1/C(=C\C=C2/CCC[C@]3(C)[C@@H]([C@H](C)/C=C/C=C/C(O)(CC)CC)CC[C@@H]23)C[C@@H](O)C[C@@H]1O [EB1089, 1,25-dihydroxy-22,24-diene, 24,26,27-trihomo]
induction of CAMP (hCAP18) mRNA expression by Vitamin D3 analogs (CAMP [5]; Northern blot): strongly induced CAMP gene expression
induction of CAMP (hCAP18) mRNA expression by Vitamin D3 analogs (CAMP [5]; Northern blot, listed as EB 1089): Induction of hCAP18 mRNA expression was observed; also recorded: Induction of CAMP mRNA expression was observed

C=C1/C(=C\C=C2/CCC[C@]3(C)[C@@H]([C@@H](C)OCCCC(O)(CC)CC)CC[C@@H]23)C[C@@H](O)C[C@@H]1O [KH1060, 20-epi-22oxa-24a,26a,27a-tri-homo-1,25(OH)2D3]
induction of CAMP (hCAP18) mRNA expression by Vitamin D3 analogs (CAMP [5]; Northern blot): strongly induced CAMP gene expression; also recorded: Induction of hCAP18 mRNA expression was observed; also recorded: Induction of CAMP mRNA expression was observed

CCCCCCCCCCCCCC(=O)O[C@@H]1[C@@H](C)[C@@]2(O)[C@@H](C=C(CO)C[C@]3(O)C(=O)C(C)=C[C@@H]23)[C@@H]2C(C)(C)[C@]12OC(C)=O [PMA]
induction of hCAP18 expression (hCAP18): not by pro-inflammatory mediators

CCCCCCCCCCCCCC(=O)O[C@@H]1[C@@H](C)[C@@]2(O)[C@@H](C=C(CO)C[C@]3(O)C(=O)C(C)=C[C@@H]23)[C@@H]2C(C)(C)[C@]12OC(C)=O [TPA]
induction of CAMP expression (CAMP [5]; [11]): only 1,25(OH)2D3 induced CAMP expression significantly
induction of CAMP mRNA (CAMP [5]; U937, 1,25[OH]2D3 1×10^−7 M or TPA 5 ng/ml, 1, 3 or 5 days, Northern blot): not TPA
induction of CAMP mRNA (CAMP [6]; HL-60, 1,25[OH]2D3 1×10^−7 M or TPA 5 ng/ml, 1, 3 or 5 days, Northern blot): not TPA
macrophage-like differentiation (induction of CD11b) (CD11b [2]): promoted macrophage-like differentiation
macrophage-like differentiation (induction of CD11b) (CD11b [7]): promoted macrophage-like differentiation

C=C1/C(=C\C=C2/CCC[C@]3(C)[C@@H]([C@H](C)/C=C/C[C@@](C)(O)CO)CC[C@@H]23)C[C@@H](O)C[C@@H]1O [compound I, 1,25R,26-(OH)3-22-ene-D3]
induction of CAMP (hCAP18) mRNA expression by Vitamin D3 analogs (CAMP [5]; Northern blot): strongly induced CAMP gene expression; also recorded: Induction of hCAP18 mRNA expression was observed; also recorded: Induction of CAMP mRNA expression was observed
CRAMP expression in bone marrow compared with a vehicle-treated mouse (CRAMP [8]): did not significantly alter CRAMP expression

GM-CSF: growth factor
induction of CAMP expression (CAMP [5]; [11]): only 1,25(OH)2D3 induced CAMP expression significantly

IL-1β: proinflammatory cytokine
induction of CAMP expression (CAMP [9]): induced CAMP expression

IL-6: cytokine
induction of CAMP expression (CAMP [5]; [11]): only 1,25(OH)2D3 induced CAMP expression significantly
induction of hCAP18 expression (hCAP18): not by pro-inflammatory mediators
induction of CAMP expression (CAMP [9]): did not

IL-8: cytokine
induction of CAMP expression (CAMP [9]): did not

INFγ: inflammatory factor
induction of CAMP expression (CAMP [5]; [11]): only 1,25(OH)2D3 induced CAMP expression significantly
induction of hCAP18 expression (hCAP18): not by pro-inflammatory mediators
induction of CAMP expression (CAMP [9]): did not

TNFα
induction of CAMP expression (CAMP [5]; [11]): only 1,25(OH)2D3 induced CAMP expression significantly
induction of hCAP18 expression (hCAP18): not by pro-inflammatory mediators
induction of CAMP expression (CAMP [9]): did not

insulin-like growth factor (IGF)-1: growth factor that is important in wound healing
induction of CAMP mRNA and protein (CAMP [10]): induce both the CAMP mRNA and protein

B1: G-CSF: growth factor (protein, UniProt P09919 31-207, looked up)
Granulocyte …: TPLGPASSLPQSFLLKCLEQVRKIQGDGAALQEKLVSECATYKLCHPEELVLLGHSLGIPWAPLSSCPSQALQLAGCLSQLHSGLFLYQGLLQALEGISPELGPTLDTLQLDVADFATTIWQQMEELGMAPALQPTQGAMPAFASAFQRRAGGVLVASHLQSFLEVSYRVLRHLAQP
induction of CAMP expression (CAMP [5]; [11]): only 1,25(OH)2D3 induced CAMP expression significantly

B2: IL-1α: pro-inflammatory mediator (protein, UniProt P01583 113-271, looked up)
Interleukin-1 alpha: SAPFSFLSNVKYNFMRIIKYEFILNDALNQSIIRANDQYLTAAALHNLDEAVKFDMGAYKSSKDDAKITVILRISKTQLYVTAQDEDQPVLLKEMPEIPKTITGSETNLLFFWETHGTKNYFTSVAHPNLFIATKQDYWVCLAGGPPSITDFQILENQA
induction of hCAP18 expression (hCAP18): not by pro-inflammatory mediators

B3: I1-4: cytokine, probably IL-4 (protein, UniProt P05112 25-153, looked up)
Interleukin-4: HKCDITLQEIIKTLNSLTEQKTLCTELTVTDIFAASKNTTEKETFCRAATVLRQFYSHHEKDTRCLGATAQQFHRHKQLIRFLKRLDRNLWGLAGLNSCPVKEANQSTLENFLERLKTIMREKYSKCSS
induction of CAMP expression (CAMP [9]): did not

B4: IL-10: cytokine (protein, UniProt P22301 19-178, looked up)
Interleukin-10: SPGQGTQSENSCTHFPGNLPNMLRDLRDAFSRVKTFFQMKDQLDNLLLKESLLEDFKGYLGCQALSEMIQFYLEEVMPQAENQDPDIKAHVNSLGENLKTLRLRLRRCHRFLPCENKSKAVEQVKNAFNKLQEKGIYKAMSEFDIFINYIEAYMTMKIRN
induction of CAMP expression (CAMP [9]): did not
